Several values for one entry are separate records, joined by “and”; a condition that tells them apart may be missing. Identical values can stand only once. Like-named read-outs stand apart in the source and are kept apart here. Each block holds one compound with its values, some of them ahead of it.
Experiments:
tyrosinase [1] = target: T1, tyrosinase (Agaricus bisporus, UniProt C7FF04); assay: Tyrosinase assay (L-tyrosine substrate, product detected at 475 nm); format: biochemical, mushroom; conditions: for inhibition at 100 µM: read-out: Inhibitory activity on tyrosinase at 100 μM (%); for Binding mode: Lineweaver–Burk and Dixon plots; for Ki: based on Dixon plots
T1 construct: purchased Sigma-Aldrich T3824
Description: Phlorotannins of E. cava and E. stolonifera were reported to have the inhibitory activity on mushroom tyrosinase. […] This study evaluated the ability of the isolated phlorotannins 1–7 to suppress the catalytic reaction of tyrosinase over time, in the absence or presence of inhibitor. […]. A commercial tyrosinase inhibitor was used as a positive control (kojic acid; […]. To identify potent inhibitors, the inhibitory activity of all of the isolated compounds at 100 μM was tested against tyrosinase in vitro (Table 1). Of these, compounds 2–5 were confirmed to have inhibitory activity exceeding 50%. Serial dilutions were used to calculate the IC50 values. The tyrosinase inhibitory activity increased in a dose-dependent fashion (Figure 2A). […]. To gain insight into the interaction of the enzyme with phlorotannins, as tyrosinase inhibitors, the products of the catalytic reaction were determined by ultraviolet-visible photometry after the inhibitor was added to the enzyme solution. The IC50 values of compounds 3 and 5 increased linearly with [S]/Km (Figure 2B). […]. Phlorotannins from seaweeds have been used to develop the non-competitive tyrosinase inhibitors 7-phloroeckol, dieckol, and phlorofucofuroeckol A, and the competitive inhibitors phloroglucinol and eckstolonol.
To evaluate inhibitory activity on tyrosinase with isolated compounds, 130 μL of tyrosinase in […] phosphate buffer (pH 6.8) was divided in 96 well plates. 20 μL of compound concentrations ranging from 1–0.015 mM was added. 50 μL of 1.5 mM L-tyrosine in phosphate buffer was diluted into the mixture for calculating the inhibitory activity. 50 μL of 10–0.62 mM L-tyrosine in buffer was added to analyze initial velocity (v0). After starting their reaction for 20 min, an amount of the product was detected at UV–vis 475 nm. […]

tyrosinase [2] = target: T1, tyrosinase; conditions: cited from earlier work; for Mode of tyrosinase inhibition (literature): phlorotannins from seaweeds
tyrosinase [3] = target: T1, tyrosinase; assay: Slow-binding inhibition analysis (progress curves); format: biochemical, mushroom; conditions: for Ki: apparent Ki from slow-binding analysis, read-out: kapp i; for Slow-binding mechanism: replot of kobs vs [I]
Description: To confirm time-dependent inhibition by the potential inhibitors (compounds 3 and 5), the substrate was added into a mixture of ligand (3.1 μM) that was preincubated with tyrosinase. Over time, their inhibitory activities increased. To calculate the slow-binding parameters (k3, k4, k5, k6, and kapp i), the progress curves were analyzed using equation (2), with increasing concentrations of compounds 3 and 5 (Figure 3C,D); a replot of kobs was obtained as [I] (Figure 3E,F). The replot of compound 3 was a straight line that fit equation (3). […] The two strongest inhibitors had different slow-binding mechanisms. Inhibitor 5, which has a higher molecular weight, induced a new conformational state of the enzyme.
The progress curves were calculated to Equation (2) by Morrison according to time course for 420 s. [P] = vst + [(v0 − vs)/kobs(1 − e^−kobst)](2) where t is time, [P] is product intensity, v0 and vs are the initial and steady-state reaction velocities, and kobs is the apparent first-order rate […]. kobs = k4 + k3[I](3) (4) Kiapp=k4/k3
This is a linear Equation (3) for slow-binding mechanism A. Kiapp is the apparent value of an inhibitor by Equation (4). Where [I] is inhibitor concentration. (5) kobs=k6+[(k5×[I])/(Kiapp+[I])
Equation (5) of hyperbola is for the calculation of rate constant in slow-binding mechanism B.

T1 sequence (C7FF04 1-392 limits assumed): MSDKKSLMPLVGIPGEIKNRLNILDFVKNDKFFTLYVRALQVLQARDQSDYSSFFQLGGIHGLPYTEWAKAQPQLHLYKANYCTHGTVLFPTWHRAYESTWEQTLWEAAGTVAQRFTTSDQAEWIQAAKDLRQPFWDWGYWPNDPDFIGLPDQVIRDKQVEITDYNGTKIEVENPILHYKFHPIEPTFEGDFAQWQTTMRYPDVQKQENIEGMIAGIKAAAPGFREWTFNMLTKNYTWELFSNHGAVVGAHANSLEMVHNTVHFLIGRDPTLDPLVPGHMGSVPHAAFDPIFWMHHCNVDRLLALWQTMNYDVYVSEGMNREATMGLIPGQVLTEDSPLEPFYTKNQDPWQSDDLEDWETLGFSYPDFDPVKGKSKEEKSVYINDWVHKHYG

Compound: Oc1cc(O)cc(Oc2c(O)cc(O)c3c2Oc2c(cc(O)c(-c4c(O)cc5c(c4O)Oc4c(Oc6cc(O)cc(O)c6)c(O)cc(O)c4O5)c2O)O3)c1 [Compound 7, 8,8′-bieckol]
inhibition at 100 µM (tyrosinase [1]): 43.3 ± 1.5%

Compound: Oc1cc(O)cc(O)c1 [phloroglucinol]
Mode of tyrosinase inhibition (literature) (tyrosinase [2]): competitive

Compound: Oc1cc(O)cc(Oc2c(O)cc(O)c3c2Oc2c(O)cc4oc5c(Oc6cc(O)cc(O)c6)c(O)cc(O)c5c4c2O3)c1 [Compound 4, phlorofucofuroeckol A]
IC50 (tyrosinase [1]; IC50, triplicate): 66.4 ± 0.1 µM | inhibition at 100 µM (tyrosinase [1]; compound at 100 μM, triplicate): 57.1 ± 3.3% | Mode of tyrosinase inhibition (literature) (tyrosinase [2]): non-competitive

Compound: triphlorethol A [Compound 1]
Inhibitory activity on tyrosinase at 100 μM (%) (tyrosinase [1]; compound at 100 μM, triplicate): 26.7 ± 1.0%

Ki (tyrosinase [3]): 6.5 µM | Slow-binding mechanism (tyrosinase [3]): a single-step binding mechanism | K3 (tyrosinase [3]; slow-binding mechanism A): 0.0002 mM/s | k4 (tyrosinase [3]; slow-binding mechanism A): 0.0013 s⁻¹ | Binding mode (tyrosinase [1]): Competitive | Ki (tyrosinase [1]): 8.2 µM | inhibition at 100 µM (tyrosinase [1]; compound at 100 μM, triplicate): 94.7 ± 1.4% | IC50 (tyrosinase [1]; triplicate, read-out: IC50): < 10 µM and 7 µM
Compound: Oc1cc(O)cc(Oc2c(Oc3c(O)cc(O)cc3O)cc(O)c3c2Oc2c(O)cc(O)cc2O3)c1 [Compound 3, 2-phloroeckol]

Compound: eckstolonol
Mode of tyrosinase inhibition (literature) (tyrosinase [2]): competitive

Compound: Oc1cc(O)cc(Oc2c(O)cc(O)c3c2Oc2c(O)cc(Oc4c(O)cc(O)cc4O)cc2O3)c1 [7-phloroeckol]
Mode of tyrosinase inhibition (literature) (tyrosinase [2]): non-competitive

Compound: Oc1cc(O)cc(Oc2c(O)cc(O)c3c2Oc2c(O)cc(O)cc2O3)c1 [Compound 2, eckol]
IC50 (tyrosinase [1]; IC50, triplicate): 13.5 ± 0.1 µM | inhibition at 100 µM (tyrosinase [1]; compound at 100 μM, triplicate): 86 ± 4.7% | Binding mode (reported) (tyrosinase [2]): Reported as non-competitive ^d

Ki (tyrosinase [3]): 4.4 µM | Slow-binding mechanism (tyrosinase [3]): a two-step binding mechanism | K5 (tyrosinase [3]; slow-binding mechanism B): 0.0047 s⁻¹ | K6 (tyrosinase [3]; slow-binding mechanism B): 0.0003 s⁻¹ | Binding mode (tyrosinase [1]): Competitive | Ki (tyrosinase [1]): 5.8 µM | inhibition at 100 µM (tyrosinase [1]; compound at 100 μM, triplicate): 86.9 ± 0.9% | IC50 (tyrosinase [1]; triplicate, read-out: IC50): < 10 µM and 8.8 µM
Compound: Oc1cc(O)cc(Oc2c(O)cc(O)c3c2Oc2c(O)cc(O)c(-c4c(O)cc(O)c5c4Oc4c(O)cc(Oc6c(O)cc(O)cc6O)c(Oc6cc(O)cc(O)c6)c4O5)c2O3)c1 [Compound 5, 2-O-(2,4,6-trihydroxyphenyl)-6,6′-bieckol]

Compound: Oc1cc(O)cc(Oc2c(O)cc(O)c3c2Oc2c(O)cc(Oc4c(O)cc(Oc5c(O)cc(O)c6c5Oc5c(O)cc(O)cc5O6)cc4O)cc2O3)c1 [dieckol]
Mode of tyrosinase inhibition (literature) (tyrosinase [2]): non-competitive

inhibition at 100 µM (tyrosinase [1]; compound at 100 μM, triplicate): 41.2 ± 4.3%
Compound: Oc1cc(O)cc(Oc2c(O)cc(O)c3c2Oc2c(cc(O)c(-c4c(O)cc(O)c5c4Oc4c(O)cc(O)c(Oc6cc(O)cc(O)c6)c4O5)c2O)O3)c1 [Compound 6, 6,8′-bieckol]
